# Experimental data reported in patent publication US20090105343A1, “Cancer Therapy And Medicaments Therefor” (The University of Birmingham, priority 2004, published 2009).
# “Also recorded” adds a separate entry of the source.
# How the values were obtained:
# Assay type in all cases: cell-based
# EJ-28 = assay: Proliferation assay (ATP bioluminescence), EJ-28 bladder cancer cells; conditions: for Sensitivity of EJ-28 proliferation to ligand treatment: EJ-28 cells, ligand alone
# Method: (§1) The action of individual agents alone and in combination was examined using a bioluminescent technique to measure changes in cellular ATP (ViaLight HS, LumiTech, Nottingham, U.K.) with previously optimised conditions according to the manufacturer's instructions (Rashid, S. F. et al. Supra). Briefly, cells were plated in 96 well white-walled tissue culture-treated plates (Fisher Scientific Ltd. Loughborough, U.K.) (cancer cell lines at 2×10^3 cells/well; PrEC at 3.5×10^3 cells/well). […] After the incubation period, 100 μl of nucleotide releasing reagent was added to each well and cells were left for 30 minutes at room temperature. Liberated ATP was quantitated by adding 20 μl of ATP monitoring reagent (containing luciferin and luciferase) and measuring luminescence with a microplate luminometer (Berthold Detection Systems, Fisher Scientific Ltd.). ATP levels were recorded in relative luciferase units and growth inhibition was expressed as a percentage of control.
# [1] = tested on: prostate cancer cell lines; assay: Proliferation assay (ATP bioluminescence), prostate cancer cell lines, single agents and combinations
# Method: as §1
# The interactions of two compounds were assessed by measuring the mean of either the nuclear receptor ligand or the HDAC inhibitor acting alone or in combination. The mean observed combined effect was compared to the individual effects of the agents added together, using the Student's t-test. […] All other analyses were also compared using the Student's t-test.
# GADD45α [2] = assay: GADD45α induction in PC-3 cells after SMRT knock down; conditions: SMRT knocked down by RNAi
# Text: SIRNA fragments (22mers) were generated in vitro using a Dicer generation system according to the manufacturer's protocol (Gene Therapy Systems, San Diego, Calif.). Briefly, a 650 bp region from the human SMRT gene sequence corresponding to 112 to 762 was amplified using the following primers containing T7 promoter sequences;
# FS: 5′-[…]-3′ and RV: 5′-[…]-3′. This was subsequently cloned into the pGEM T easy vector (Promega), using the multiple cloning sites to allow for sequencing, large scale harvest. Digestion with ECoR1 released a pure concentrated template for in vitro […] with primers containing T7 recognition sequences to generate double stranded mRNA. This was subsequently cleaved with recombinant human Dicer enzyme to generate a pool of 22mers which cover the region targeted in the 5′prime region of the SMRT gene. Five hundred ng of purified double stranded RNA 22mers were transfected into each well (2×10^5 cells/well in 24-well plates) for 12 hrs. Cells were then left for a further 72 hr to allow gene silencing and subsequently treated with 1α,25(OH)2D3 (100 nM) for 6 hr and total RNA was harvested and Q-RT-PCR for SMRT and target genes was undertaken as above.
# DU-145 cells = assay: Cell cycle analysis (propidium iodide flow cytometry); conditions: DU-145, 1 μM, after 24 hr (ctrl 41%)
# Method: The effect of nuclear receptor ligands in combination with the HDAC inhibitors on the cell cycle was measured by staining DNA with propidium iodide (PI). Briefly, T25 flasks were seeded with 2.5×10^5 sub-confluent, exponentially proliferating cells, exposed to 100 nM 1α,25(OH)2D3 alone or combined with either 300 μM NaB or 15 nM TSA at times 0 (and re-dosed after 48 hours in 72 and 96 hr assays). After a total of 24, 48, 72 and 96 hours, cultures were harvested by trypsinising, counted and 1×10^6 cells were stained with PI buffer (10 μg/ml PI, 1% (w/v) tri-sodium citrate, 0.1% (v/v) Triton X-100, 100 μM sodium chloride (Sigma)). Cell cycle distribution was determined using a Becton-Dickinson Flow Cytometer and CellFIT Cell-Cycle Analysis software.
# p21^(waf1/cip1) = assay: Upregulation of CDKI p21(waf1/cip1); conditions: 2 μM
# Method: (§2) Cells were seeded at a density of 2×10^4/cm^2 and allowed to grow for 36 h to ensure that cells were in mid-exponential phase upon treatment. Total RNA was extracted using the GenElute RNA extraction system (Sigma) according to manufacturer's instructions. Primary cultures were serially passaged and grown to 80% confluency in standard serum-free medium. Cells were fed one day prior to isolation of total RNA using the Qiagen RNeasy Midi kit (Qiagen, Palo Alto, Calif., USA).
# (§3) For real time reverse transcription-polymerase chain reaction (RT-PCR), cDNA was prepared from 1 μg of total RNA by reverse transcription with Mu-MLV (Promega Southampton, UK) at 42° C. for 60 min in the presence of 100 mM Tris-HCl, pH 9.0, 500 mM KCl and 2 mM MgCl2, 100 μM random hexamers (Pharmacia, Pisacataway, N.J.), 2 mM dNTP and 20 U RNAsin (Promega) in a 20 μl reaction volume.
# (§4) Expression of specific mRNAs was quantitated using the ABI PRISM 7700 Sequence Detection System. […]
# (§5) Data were expressed as Ct values (the cycle number at which logarithmic PCR plots cross a calculated threshold line) and used to determine δCt values (δCt=Ct of the target gene minus Ct of the housekeeping gene). […]
# GADD45α [3] = assay: GADD45α gene induction (Q-RT-PCR); conditions: 0.1 μM, 8 hr
# Method: as §2, §3, §4, §5
# RT-4 = assay: Proliferation assay (ATP bioluminescence), RT-4 bladder cancer cells; conditions: Homo sapiens; RT-4 cells, 96 h; read-out: Estimated dose required to inhibit bladder cancer cell proliferation by 50% (ED50)
# Method: as §1
EC50 (RT-4),SMILES,Sensitivity of EJ-28 proliferation to ligand treatment (EJ-28),"interaction of the ligand with SAHA on proliferation ([1]; co-treatment with SAHA, listed as 1α,25(OH)2D3)",augmentation of the ligand's action by TSA ([1]; co-treatment with TSA),GADD45α induction by ligand alone after SMRT knock down (GADD45α [2]),cells in G1 (DU-145 cells),upregulation of the CDKI p21(waf1/cip1) (p21^(waf1/cip1)),"GADD45α induction, individual agent alone (GADD45α [3])","ligand action in EJ-28 cells on co-treatment with SAHA (EJ-28; EJ-28, co-treatment with SAHA)"
,"C=C1/C(=C\C=C2/CCC[C@]3(C)[C@@H]([C@H](C)CCCC(C)(C)O)CC[C@@H]23)C[C@@H](O)C[C@@H]1O [Vit D, 1α,25-dihydroxyvitamin D3]",insensitive,did not appear to extend; also recorded: does not,augments,very strongly enhanced,,,,
,"O=C(CCCCCCC(=O)Nc1ccccc1)NO [SAHA, Suberoylanilide hydroxamic acid]",,,,,64%,potent and immediate upregulation,not significant,
11 µM,"C[C@H](CCC(=O)O)[C@H]1CC[C@H]2[C@@H]3[C@H](O)C[C@@H]4C[C@H](O)CC[C@]4(C)[C@H]3CC[C@]12C [CDA, chenodeoxycholic acid]",insensitive,,,,,,,restored the actions
